We go through 14 molecules from patent US20240148821A1, “PHARMACEUTICAL USE OF CYCLIC PEPTIDE COMPOUND” (CHUGAI SEIYAKU KABUSHIKI KAISHA, priority 2021, published 2024).

Numbered stars: 1 amine (or outer) side, 2 acyl side, 3 side chain; on linkers, the order of the positions; unused ones are H or OH. Bridge positions count the residues as written; N and C are the ends. Square brackets hold non-standard residues; d marks the D form. Peptide text beside a SMILES is read from it. * marks the point of attachment. hPhe(3-Cl-4-CF3) = N[C@@H](CCc1ccc(C(F)(F)F)c(Cl)c1)C(=O)O; hPhe(3-F,4-CF3) = N[C@@H](CCc1ccc(C(F)(F)F)c(F)c1)C(=O)O; NMePhe(4-Cl) = CN[C@@H](Cc1ccc(Cl)cc1)C(=O)O; NMePhe(3-Me) = CN[C@@H](Cc1cccc(C)c1)C(=O)O; NMePhe(4-Me) = CN[C@@H](Cc1ccc(C)cc1)C(=O)O; NMePhe(4-F) = CN[C@@H](Cc1ccc(F)cc1)C(=O)O; NMeGly(cPent) = CN[C@H](C(=O)O)C1CCCC1; Phe(3-I) = N[C@@H](Cc1cccc(I)c1)C(=O)O; X26 = CC(C)=CC[C@H](N[*:1])C(=O)[*:2]; NMeCha = CN[C@@H](CC1CCCCC1)C(=O)O; NMehLeu = CN[C@@H](CCC(C)C)C(=O)O; NMeChg = CN[C@H](C(=O)O)C1CCCCC1; NMeF = CN[C@@H](Cc1ccccc1)C(=O)O; NMeD = CN[C@@H](CC(=O)O)C(=O)O; NMeL = CN[C@@H](CC(C)C)C(=O)O; NMeNle = CCCC[C@H](NC)C(=O)O; NPrAla = CCCN[C@@H](C)C(=O)O; NMeV = CN[C@H](C(=O)O)C(C)C; d(β3hA) = C[C@@H](N)CC(=O)O; dIva = CC[C@@](C)(N)C(=O)O; NMeS = CN[C@@H](CO)C(=O)O; Morpholide = C1CN(*)CCO1; NMeA = CN[C@@H](C)C(=O)O; NMeAib = CNC(C)(C)C(=O)O; Piperidide = C1CCN(*)CC1; Pyrrolidide = C1CCN(*)C1; dNMeA = CN[C@H](C)C(=O)O; Ac5c = NC1(C(=O)O)CCCC1; Aze = O=C(O)[C@@H]1CCN1; Ac4c = NC1(C(=O)O)CCC1; Sar = CNCC(=O)O; Propyl = CCC*

The assay has as its system Human pancreatic cancer cell line AsPC-1 (G12D mutation Kras). The assay can be described thus: AsPC-1 cell growth inhibition (AsPC-1 CGI). In kind it is cell-based. The following applies: read-out: AsPC-1 cell growth inhibition, 50% growth inhibitory concentration (IC50 value); 96 hours, CellTiter-Glo, values classified in ranges. (In general: ATP-based viability assays read luminescence as a measure of living cells.)
Experimental: Test compounds were serially dilated with dimethyl sulfoxide, and 200 nL was then dispensed to a U-bottom 96-well plate using Labcyte Echo. […] The cell suspension was dispensed to a. plate containing a test compound at 100 μL per well and incubated at 37° C. in a 5% carbon dioxide gas incubator. 96 hours later, 80 μL of CellTiter-Glo (Promega) was added to each well and fluorescence was measured.
Turning to `CC[C@H](C)[C@@H]1NC(=O)[C@H](CC(C)C)N(C)C(=O)C[C@@H](C)NC(=O)[C@H](C(C)C)N(C)C(=O)[C@@](C)(CC)NC(=O)[C@@H]2CCCN2C(=O)[C@H](CCc2ccc(C(F)(F)F)c(Cl)c2)NC(=O)CN(C)C(=O)[C@H](CC2CCCCC2)N(C)C(=O)CN(C)C(=O)CN(C)C1=O` [Compound 275] (cyclo(I[Sar][Sar][NMeCha][Sar][hPhe(3-Cl-4-CF3)]P[dIva][NMeV][d(β3hA)][NMeL])), the IC50 is more than 500 nM.

Consider `CC[C@H](C)[C@@H]1NC(=O)[C@H](CC(C)C)N(C)C(=O)C[C@@H](C)NC(=O)[C@H](C(C)C)N(C)C(=O)C2(CCCC2)NC(=O)[C@@H]2CCCN2C(=O)[C@H](CCc2ccc(C(F)(F)F)c(Cl)c2)NC(=O)CN(C)C(=O)[C@H](Cc2cccc(C)c2)N(C)C(=O)CN(C)C(=O)CN(C)C1=O` [Compound 1547] (cyclo([Ac5c][NMeV][d(β3hA)][NMeL]I[Sar][Sar][NMePhe(3-Me)][Sar][hPhe(3-Cl-4-CF3)]P)), for which the IC50 was more than 500 nM.

Consider `CC[C@H](C)[C@@H]1NC(=O)[C@H](CC(C)C)N(C)C(=O)C[C@@H](C(=O)N2CCCCC2)N(C)C(=O)[C@H](C2CCCCC2)N(C)C(=O)C2(CCCC2)NC(=O)[C@@H]2CCCN2C(=O)[C@H](CCc2ccc(C(F)(F)F)c(Cl)c2)NC(=O)CN(C)C(=O)[C@H](CC2CCCCC2)N(C)C(=O)CN(C)C(=O)[C@H](C)N(C)C1=O` [Compound 1345] ([NMeL]I[NMeA][Sar][NMeCha][Sar][hPhe(3-Cl-4-CF3)]P[Ac5c][NMeChg][NMeD]-Piperidide; lactam N-11), for which the IC50 is more than 500 nM.

As to `CC[C@H](C)[C@@H]1NC(=O)[C@H](CC(C)C)N(C)C(=O)C[C@@H](C(=O)N2CCCC2)N(C)C(=O)[C@H](C2CCCCC2)N(C)C(=O)C2(CCC2)NC(=O)[C@@H]2CCCN2C(=O)[C@H](CCc2ccc(C(F)(F)F)c(Cl)c2)NC(=O)CN(C)C(=O)[C@H](CC2CCCCC2)N(C)C(=O)CN(C)C(=O)CN(C)C1=O` [Compound 1894] ([NMeL]I[Sar][Sar][NMeCha][Sar][hPhe(3-Cl-4-CF3)]P[Ac4c][NMeChg][NMeD]-Pyrrolidide; lactam N-11), the IC50 was not above 20 nM.

For `CC[C@H](C)[C@@H]1NC(=O)[C@H](C)N(C)C(=O)C[C@@H](C(=O)N2CCCCC2)N(C)C(=O)[C@H](C(C)C)N(C)C(=O)C2(CCCC2)NC(=O)[C@@H]2CCCN2C(=O)[C@H](CCc2ccc(C(F)(F)F)c(Cl)c2)NC(=O)[C@@H](C)N(C)C(=O)[C@H](Cc2ccc(F)cc2)N(C)C(=O)[C@@H]2CCCN2C(=O)CN(C)C1=O` [Compound 1853] ([NMeA]I[Sar]P[NMePhe(4-F)][dNMeA][hPhe(3-Cl-4-CF3)]P[Ac5c][NMeV][NMeD]-Piperidide; lactam N-11), the IC50 was more than 500 nM.

Turning to `CC[C@H](C)[C@@H]1NC(=O)[C@H](CC(C)C)N(C)C(=O)C[C@@H](C)NC(=O)[C@H](C(C)C)N(C)C(=O)C2(CCCC2)NC(=O)[C@@H]2CCCN2C(=O)[C@H](CCc2ccc(C(F)(F)F)c(Cl)c2)NC(=O)CN(C)C(=O)[C@H](CC2CCCCC2)N(C)C(=O)[C@@H]2CCCN2C(=O)CN(C)C1=O` [Compound 1050] (cyclo([Ac5c][NMeV][d(β3hA)][NMeL]I[Sar]P[NMeCha][Sar][hPhe(3-Cl-4-CF3)]P)), the IC50 was more than 500 nM.

Consider `CCCC[C@H]1C(=O)N[C@H](C)CC(=O)N(C)[C@@H](CC(C)C)C(=O)N[C@@H]([C@@H](C)CC)C(=O)N(C)CC(=O)N(C)CC(=O)N(C)[C@@H](CC2CCCCC2)C(=O)N(C)CC(=O)N[C@@H](CCc2ccc(C(F)(F)F)c(F)c2)C(=O)N2CCC[C@H]2C(=O)NC2(CCCC2)C(=O)N1C` [Compound 1518] (cyclo([Ac5c][NMeNle][d(β3hA)][NMeL]I[Sar][Sar][NMeCha][Sar][hPhe(3-F,4-CF3)]P)), for which the IC50 was more than 500 nM.

For `CC[C@H](C)[C@@H]1NC(=O)[C@H](CC(C)C)N(C)C(=O)C[C@@H](C)NC(=O)[C@H](CCC(C)C)N(C)C(=O)C2(CCCC2)NC(=O)[C@@H]2CCCN2C(=O)[C@H](CCc2ccc(C(F)(F)F)c(Cl)c2)NC(=O)CN(C)C(=O)[C@H](CC2CCCCC2)N(C)C(=O)CN(C)C(=O)CN(C)C1=O` [Compound 586] (cyclo([Ac5c][NMehLeu][d(β3hA)][NMeL]I[Sar][Sar][NMeCha][Sar][hPhe(3-Cl-4-CF3)]P)), the IC50 was more than 500 nM.

Turning to `CC[C@H](C)[C@@H]1NC(=O)[C@H](CC(C)C)N(C)C(=O)C[C@@H](C(=O)N2CCOCC2)N(C)C(=O)[C@H](C2CCCCC2)N(C)C(=O)C2(CCC2)NC(=O)[C@@H]2CCCN2C(=O)[C@H](CCc2ccc(C(F)(F)F)c(Cl)c2)NC(=O)CN(C)C(=O)[C@H](CC2CCCCC2)N(C)C(=O)CN(C)C(=O)CN(C)C1=O` [Compound 1875] ([NMeL]I[Sar][Sar][NMeCha][Sar][hPhe(3-Cl-4-CF3)]P[Ac4c][NMeChg][NMeD]-Morpholide; lactam N-11), the IC50 is not above 20 nM.

As to `CCCN1C(=O)C[C@@H](C)NC(=O)[C@H](C(C)C)N(C)C(=O)C2(CCCC2)NC(=O)[C@@H]2CCCN2C(=O)[C@H](CCc2ccc(C(F)(F)F)c(Cl)c2)NC(=O)CN(C)C(=O)[C@H](CC2CCCCC2)N(C)C(=O)CN(C)C(=O)CN(C)C(=O)[C@H]([C@@H](C)CC)NC(=O)[C@@H]1C` [Compound 114] (cyclo([Ac5c][NMeV][d(β3hA)][NPrAla]I[Sar][Sar][NMeCha][Sar][hPhe(3-Cl-4-CF3)]P)), the IC50 was more than 500 nM.

Take `CC[C@H](C)[C@@H]1NC(=O)[C@H](CC(C)C)N(C)C(=O)C[C@@H](C)NC(=O)[C@H](CC(C)C)N(C)C(=O)C2(CCCC2)NC(=O)[C@@H]2CCCN2C(=O)[C@H](CCc2ccc(C(F)(F)F)c(Cl)c2)NC(=O)CN(C)C(=O)[C@H](CC2CCCCC2)N(C)C(=O)CN(C)C(=O)CN(C)C1=O` [Compound 1503] (cyclo([Ac5c][NMeL][d(β3hA)][NMeL]I[Sar][Sar][NMeCha][Sar][hPhe(3-Cl-4-CF3)]P)): the IC50 was more than 500 nM.

On to `CCCOC[C@H]1C(=O)N(C)CC(=O)N[C@@H](CCc2ccc(C(F)(F)F)c(Cl)c2)C(=O)N2CCC[C@H]2C(=O)NC2(CCCC2)C(=O)N(C)[C@@H](C2CCCC2)C(=O)N(C)[C@H](C(=O)N2CCOCC2)CC(=O)N(C)[C@@H](CC(C)C)C(=O)N[C@@H]([C@@H](C)CC)C(=O)N(C)[C@@H](C)C(=O)N2CC[C@H]2C(=O)N1C` [Compound 974] ([NMeL]I[NMeA][Aze][NMeS](Propyl)[Sar][hPhe(3-Cl-4-CF3)]P[Ac5c][NMeGly(cPent)][NMeD]-Morpholide; lactam N-11), for which the IC50 was not above 20 nM.

With `CC[C@H](C)[C@@H]1NC(=O)[C@H](CC(C)C)N(C)C(=O)C[C@@H](C(=O)N2CCCCC2)N(C)C(=O)[C@H](CC(C)C)NC(=O)C(C)(C)N(C)C(=O)[C@H](CC=C(C)C)NC(=O)[C@H](Cc2cccc(I)c2)NC(=O)CN(C)C(=O)[C@H](Cc2ccc(Cl)cc2)N(C)C(=O)[C@@H]2CCN2C(=O)[C@H](C)N(C)C1=O` [Compound 1419] ([NMeL]I[NMeA][Aze][NMePhe(4-Cl)][Sar][Phe(3-I)][X26][NMeAib]L[NMeD]-Piperidide; lactam N-11), the IC50 is more than 500 nM.

`CC[C@H](C)[C@@H]1NC(=O)[C@H](CC(C)C)N(C)C(=O)C[C@@H](C(=O)N2CCCCC2)N(C)C(=O)[C@H](CC(C)C)NC(=O)[C@H](Cc2ccccc2)N(C)C(=O)[C@H](C)NC(=O)[C@H](Cc2cccc(I)c2)NC(=O)CN(C)C(=O)[C@H](Cc2ccc(C)cc2)N(C)C(=O)CN(C)C(=O)CN(C)C1=O` [Compound 619] ([NMeL]I[Sar][Sar][NMePhe(4-Me)][Sar][Phe(3-I)]A[NMeF]L[NMeD]-Piperidide; lactam N-11): the IC50 was more than 500 nM.
